Results on four substances are retold here after patent publication US20140349941A1, “AROMATIC-CATIONIC PEPTIDES AND USES OF SAME” (Cornell University, priority 2011, published 2014).

A short description of assay [1]: Fluorescence spectroscopy of peptide interaction with cardiolipin. The following applies: for increase in quantal yield of peptide fluorescence: peptide 1 μM. It is filed as binding. The source says: The peptides Dmt-D-Arg-(atn)Dap-Lys-NH2 (SS-19) and Dmt-D-Arg-Phe-Lys-Ald-NH2 (SS-37)cationic peptides carry net positive charge at neutral pH. They are expected to associate with anionic phospholipid cardiolipin based on electrostatic interaction. The interaction of small peptides with lipid membranes can been studied using fluorescence spectroscopy (Surewicz and Epand, 1984). […] Polarity-sensitive fluorescent probes were incorporated into the peptides and fluorescence spectroscopy was used to determine if SS-19, SS-37 and SS-36 interact with CL.
The peptide Dmt-D-Arg-Phe-(atn)Dap-NH2 (SS-19) contains anthraniloyl incorporated into diaminopropionic acid. Anthraniloyl derivatives fluoresce in the 410-420 nm range when excited at 320-330 nm (Hiratsuka T, 1983). The quantum yield of anthraniloyl derivatives is strongly dependent on the local environment, and can increase 5-fold going from water to 80% ethanol, together with a blue shift in the emission maxima (λ max) of <10 nm (Hiratsuka T, 1983). Fluorescence emission spectrum of SS-19 (1 μM) alone, and in the presence of increasing concentrations of CL (5 to 50 μg/ml), was monitored following excitation at 320 nm using Hitachi F-4500 fluorescence spectrophotometer.
The peptide Dmt-D-Arg-Phe-Lys-Ald-NH2 (SS-37) contains an additional amino acid, aladan (Ald), which has been reported to be particularly sensitive to the polarity of its environment and it has been used to probe the electrostatic character of proteins (Cohen et al., 2002). When excited at 350 nm, λmax shifts from 542 nm in water to 409 nm in heptane, accompanied by a significant increase in quantal yield (Cohen et al., 2001). Fluorescence emission spectrum of SS-37 (1 μM) alone, and in the presence of increasing concentrations of CL, was monitored following excitation at 350 nm. Addition of CL (5 to 50 μg/ml) led to a 3-fold increase in quantal yield of SS-37 as well as a clear blue shift in λmax, from 525 nm without CL to 500 nm with 50 μg/ml CL (FIG. 21B).
The peptide Dmt-D-Arg-Ald-Lys-NH2 (SS-36) contains Ald in place Phe^3. Fluorescence emission spectrum of SS-36 (1 μM) alone, and in the presence of increasing concentrations of CL, was monitored following excitation at 350 nm. SS-36 was the most sensitive to the addition of CL, with dramatic increase in quantal yield and blue shift observed with much lower added amounts of CL (1.25 to 5 μg/ml). The λmax shifted from 525 nm without CL to 500 nm with as little as 1.25 μg/ml CL, and quantal yield increased by more than 100-fold with the addition of 5 μg/ml of CL (FIG. 21C).

Assay [2] concerns the target T1, cytochrome c-CL complex (Homo sapiens, UniProt P99999). The assay is described as follows: Fluorescence spectroscopy of peptide with cytochrome c in the presence of CL. It is filed as binding. The following applies: for peptide fluorescence on addition of cytochrome c in the presence of CL: 2 μM cytochrome c; for emission maxima: with CL 2.5 μg/ml. How it is done:
Fluorescence emission of SS-19 (10 μM) was monitored in real time (Ex/Em=320 nm/420 nm) using Hitachi F-4500 fluorescence spectrophotometer. […] CL may potentiate the interaction between SS-19 and cytochrome c by serving as an anionic platform for the two cationic molecules.
The quenching by cytochrome c was not displaced by sequential additions of bovine serum albumin (500 μg/ml) (FIG. 23C, A+arrows).
SS-36 also contains the polarity-sensitive fluorescent amino acid aladan.

The target in assay [3] is heme environment of cytochrome c (with CL) (Homo sapiens, UniProt P99999). In words: Soret CD spectrum of cyt C in the presence of CL. The following applies: cyt C 10 μM; CL 30 μg/ml; peptide 10 μM; 20 mM HEPES pH 7.5, 25° C.; FIG. 24. It is filed as binding. How it is done:
Circular dichroism (CD) was carried out to examine the effects of the peptides on protecting the heme environment of cyt C from the acyl chain of CL. For heme proteins, the Soret CD spectrum is strictly correlated with the heme pocket conformation. In particular, the negative 416-420 nm Cotton effect is considered diagnostic of Fe(III)-Met80 coordination in native cyt C (Santucci and Ascoli, 1997). […] CD spectra were obtained using AVIV CD Spectrometer Model 410.
Changes in the Soret CD spectrum of cyt C (10 μM) were recorded in the absence (dotted line) and presence (dashed line) of 30 μg/ml CL, plus addition of different peptides (10 μM) (solid line) (FIG. 24). CD measurements were carried out using 20 mM HEPES, pH 7.5, at 25° C. and expressed as molar ellipticity (θ) (m Deg).

The target of assay [4] is T1, cytochrome c-CL complex. The assay is described as follows: Cytochrome c/CL peroxidase activity (amplex red). It is filed as biochemical. The conditions noted are these: figure legend FIG. 29A-C; comparison at a fixed concentration of 10 μM (FIG. 29C). From the text: The six coordination of the heme in cytochrome c prevents direct interaction of H2O2 with the catalytic metal site, and native cytochrome c in solution is a poor peroxidase. Upon interaction with CL, cytochrome c undergoes a structural change with rupture of the Fe-Met80 coordination. […] The mechanism of action of cytochrome c peroxidase is similar to that of other peroxidases, such as horse radish peroxidase (HRP). Thus it is possible to use the amplex red-HRP reaction to investigate cytochrome c peroxidase activity. In the presence of peroxidase, amplex red (AR) reacts with H2O2 to form the red-fluorescent oxidation product, resorufin (Ex/Em=571/585).
Cytochrome c (2 μM) was mixed with CL (25 μg/ml) and 10 μM H2O2 in 20 mM HEPES, pH 7.4. Amplex red (50 μM) was then added and fluorescence emission monitored in real time using Hitachi F4500 fluorescence spectrophotometer. Addition of amplex red elicited rapid increase in fluorescence signal due to resorufin formation, providing direct evidence for peroxidase activity of cytochrome c/CL complex (FIG. 29A).

For assay [5], the target named is cytochrome c (Homo sapiens, UniProt P99999). In words: Cytochrome c reduction monitored by absorption spectroscopy (glutathione or NAC as reducing agent). It is filed as biochemical. The following applies: absorbance at 550 nm; FIG. 13. On the procedure: Cytochrome c reduction: increasing amounts of aromatic-cationic peptides were added to a solution of oxidized cyt c. The formation of reduced cyt c was monitored by absorbance at […]. The rate of cyt c reduction was determined by non-linear analysis (Prizm software).
Time-resolved UV-Visible absorption spectroscopy was used to study the electron transport process of cyt c in the presence of peptides. Reduced cyt c was monitored by absorbance at a broad-band spectral range (200-1100 nm). The absorption changes were recorded with a UV/Visible spectrophotometer (Ultrospec 3300 pro, GE) in quartz cells with path lengths of 1 or 2 mm. N-acetylcysteine (NAC) and glutathione were used as electron donors to reduce oxidized cyt c. The rate constant of cyt c reduction was estimated by adding various concentrations of peptides. The dose dependence of the peptides was correlated to the cyt c reduction kinetics.
Absorption spectroscopy (UltroSpec 3300 Pro; 220-1100 nm) was used to determine if SS-31 modulates cyt c reduction (FIG. 1). Reduction of cyt c with glutathione is associated with multiple shifts in the Q band (450-650 nm), with a prominent shift at 550 nm.
Reduction of cyt c was monitored by increase in absorbance at 550 nm. […] Similar results were obtained using N-acetylcysteine (NAC) as a reducing agent (not shown).

Assay [6] relates to isolated rat kidney mitochondria. In words: O2 consumption of isolated rat kidney mitochondria (Oxygraph). It is filed as biochemical. On the procedure: (§1) Fresh mitochondria were isolated from rat kidney as described previously. Electron flux was measured by O2 consumption (Oxygraph Clark electrode) as previously described using different substrates for C1 (glutamate/malate), C2 (succinate), and C3 (TMPD/ascorbate). Assays were carried out under low substrate conditions in order to avoid saturating the enzyme reactions. ATP production in isolated mitochondria was determined kinetically using the luciferase method (Biotherma) in a 96-well luminescence plate reader (Molecular Devices). The initial maximal rate for ATP synthesis was determined over the first minute.
Oxygen consumption of isolated rat kidney mitochondria was determined using the Oxygraph (FIG. 5). Rates of respiration were measured in the presence of different concentrations of SS-31 in state 2 (400 μM ADP only), state 3 (400 μM ADP and 500 μM substrates) and state 4 (substrates only). All experiments were done in triplicate with n=4-7.
(§2) SS-20 or SS-31 was added at 100 μM concentrations to isolated mitochondria in respiration buffer containing 0.5 mM succinate (complex II substrate) and 400 μM ADP. Similar increases in O2 consumption were observed when low concentrations of complex I substrates (glutamate/malate) were used (data not shown).
SS-20 or SS-31 was added at 10 μM or 100 μM concentrations to isolated mitochondria in respiration buffer containing glutamate/malate (complex I substrate), 0.5 mM succinate (complex II substrate) or 3 μM TMPD/1 mM ascorbate (direct reductant of cyt C). 400 μM ADP was added to initiate State 3 respiration.

For assay [7], the system named is isolated mitochondria. In words: ATP synthesis in isolated mitochondria. It is filed as biochemical, rat. The conditions noted are these: mitochondria energized with low concentrations of succinate; FIG. 15. How it is done:
as §1
The rate of mitochondrial ATP synthesis was determined by measuring ATP in respiration buffer collected from isolated mitochondria 1 min after addition of […] (FIG. 6). ATP was assayed by HPLC. All experiments were carried out in triplicate, with n=3.
as §2
Increase in electron flux in the electron transport chain can either result in increase in ATP synthesis or increase in electron leak and generation of free radicals. ATP synthesis in isolated mitochondria was assayed by HPLC.

Assay [8] concerns the target cytochrome c (with CL) (Homo sapiens, UniProt P99999). The assay is described as follows: Cytochrome c reduction inhibited by CL. It is filed as biochemical. The following applies: 500 μM GSH; FIG. 25C. How it is done:
Cytochrome c is a carrier of electrons between respiratory complex III and IV in mitochondria. Cytochrome c is reduced (Fe^2+) after it accepts an electron from cytochrome c reductase, and it is then oxidized to Fe^3+ by cytochrome c oxidase.
Reduction of cytochrome c (20 μM) was induced by the addition of glutathione (500 μM) in the absence or presence of CL (100 μg/ml) (FIG. 25A). Reduction of cytochrome c was monitored by absorbance at 550 nm using a 96-well UV-VIS plate reader (Molecular Devices). Addition of CL decreased the rate of cytochrome c reduction by half.

Where no end group is shown, it is not given here. [ ]: non-standard residue; d: D form.

T1 sequence (P99999 2-105 limits assumed, species assumed, one chain of several): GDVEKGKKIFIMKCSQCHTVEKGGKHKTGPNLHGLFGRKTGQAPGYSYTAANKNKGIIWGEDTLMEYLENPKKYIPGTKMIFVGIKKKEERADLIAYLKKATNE
Sequence of heme environment of cytochrome c (with CL) (P99999 2-105 limits assumed, species assumed): as the sequence (P99999 2-105 limits assumed, species assumed, one chain of several) above
Sequence of cytochrome c (with CL) (P99999 2-105 limits assumed, species assumed): as the sequence (P99999 2-105 limits assumed, species assumed, one chain of several) above
Sequence of cytochrome c (P99999 2-105 limits assumed, species assumed): as the sequence (P99999 2-105 limits assumed, species assumed, one chain of several) above

With Dmt-D-Arg-Ald-Lys-NH2 [SS-36], the “increase in quantal yield of peptide fluorescence” value in assay [1] (CL 5 μg/ml, excitation 350 nm) was “more than 100 fold”. Moreover, the “λmax of fluorescence emission” value in assay [1] (with 1.25 μg/ml CL, excitation 350 nm) is given as 500 nm; in assay [1] (without CL, excitation 350 nm), 525 nm. Further, the “peptide fluorescence on addition of cytochrome c in the presence of CL” value in assay [2] (CL 2.5 μg/ml, FIG. 23D) is listed as “dramatic quenching of peptide's fluorescence”. Further, in assay [2] (CL 2.5 μg/ml, FIG. 23D), the “peptide fluorescence on addition of CL” value is “increase in SS-36 fluorescence”. Moreover, the values for the emission maxima in assay [2] (after 2 μM cytochrome c) and in assay [2] (before cytochrome c) were 450 nm and 510 nm, respectively. Besides, the “disappearance of the negative Cotton effect caused by CL (heme environment of cytochrome c)” value (“disappearance” below) in assay [3] is “Protect the Heme Environment of Cytochrome C from the Acyl Chain of CL”. Further, the “peroxidase activity in cytochrome c/CL complex” value (“peroxidase activity” for short) in assay [4] is “preventing peroxidase activity in cytochrome c/CL complex”.
For Dmt-D-Arg-Phe-Lys-Ald-NH2 [SS-37], the “increase in quantal yield of peptide fluorescence” value in assay [1] (CL 5-50 μg/ml) worked out at 3 fold. Moreover, the “λmax of fluorescence emission” value in assay [1] (with 50 μg/ml CL, excitation 350 nm) is reported as 500 nm; in assay [1] (without CL, excitation 350 nm), 525 nm. Besides, the “displacement of cytochrome c quenching by bovine serum albumin in the presence of CL” value in assay [2] (CL 50 μg/ml, BSA 500 μg/ml, FIG. 23C) is “not displaced”. Also, the “peptide fluorescence on addition of cytochrome c in the presence of CL” value in assay [2] (peptide 10 μM, CL 50 μg/ml) is on record as “similarly quenched”. In addition, the “peroxidase activity” value in assay [4] is listed as “preventing peroxidase activity in cytochrome c/CL complex”.
On to F[dR]FK-NH2 [SS-20], for which the “kinetics of cyt c reduction induced by glutathione (GSH)” value in assay [5] is reported as “can accelerate the kinetics of cyt c reduction”. Moreover, in assay [6] (glutamate/malate, succinate or TMPD/ascorbate, 400 μM ADP, FIG. 26), the “O2 consumption in state 3 respiration” value is “increases O2 consumption in state 3 respiration”. For the same substance, the “electron flux, as measured by O2 consumption” value in assay [6] (peptide 10 μM or 100 μM, complex I, complex II substrate or TMPD/ascorbate, FIG. 26) is given as “can promote electron flux”; in assay [6] (peptide 100 μM, 0.5 mM succinate, 400 μM ADP, FIG. 14), “can promote electron flux”. In addition, in assay [7], the “rate of ATP production” value is “significant increase in the rate of ATP production”. Moreover, in assay [3], the “disappearance” value is “Protect the Heme Environment of Cytochrome C from the Acyl Chain of CL”. The “CL inhibition of cyt C reduction” value in assay [8] is listed as “prevented CL inhibition of cyt C reduction”. In addition, in assay [4], the “peroxidase activity” value is “preventing peroxidase activity in cytochrome c/CL complex”.
For the substance “D-Arg-Tyr-Lys-Phe-NH2 ([dR]YKF-NH2; N-terminus assumed; SMILES N=C(N)NCCC[C@@H](N)C(=O)N[C@@H](Cc1ccc(O)cc1)C(=O)N[C@@H](CCCCN)C(=O)N[C@@H](Cc1ccccc1)C(N)=O) [SPI-231]”, the “disappearance” value in assay [3] is “Protect the Heme Environment of Cytochrome C from the Acyl Chain of CL”. Moreover, the “CL inhibition of cyt C reduction” value in assay [8] is on record as “prevented CL inhibition of cyt C reduction”. The “peroxidase activity” value in assay [4] is listed as “preventing peroxidase activity in cytochrome c/CL complex”.
